Reference: patent publication US10857154B2, “Pharmaceutical composition containing keratin 8 phosphorylation inhibitor for preventing or treating macular degeneration, and method for screening macular degeneration medicine” (priority 2016, dated 2020)
Like-named read-outs stand apart in the source and are kept apart here.

Assays:
[1] = tested on: APRE-19 cells and human-tissue-derived RPE cells; assay: E-cadherin / vimentin immunostaining: epithelial-mesenchymal transition under paraquat oxidative stress; type: cell-based; details: for E-cadherin expression / vimentin filaments: APRE-19 and human-tissue-derived RPE cells
Method: E-cadherin (green fluorescence) and vimentin (red fluorescence) in the cells were immunostained (cell signaling; 7832s). The nucleus was stained using TOPRO-3 (blue fluorescence) (FIG. 3A).
Thereafter, E-cadherin (green fluorescence) and vimentin (red fluorescence) in the cells were immunostained. The nucleus was visualized using TOPRO-3 (blue fluorescence) (FIG. 4C).
(§1) The same procedures as in Example 3 were performed, and 10 μM gefitinib was used in lieu of 50 nM trametinib.

ARPE-19 cells = assay: Cell motility using a Transwell insert; type: cell-based, human; details: 400 μM paraquat and 20 μM PD98059 for 36 hr, FIG. 3B
Method: Also, the cell motility was analyzed using a Transwell insert in ARPE-19 cells selectively treated with 400 μM paraquat and 20 μM PD98059 for 36 hr. As the migrated cells were stained with methylene blue it was confirmed by checking an image (FIG. 3B).

[2] = tested on: keratin 8 (K8) phosphorylation; assay: Western blotting of P-ERK1/2 and P-K8 in paraquat-treated retinal pigment epithelial cells; type: cell-based, human
Method: In the bar graph analyzed from the image of western blotting, the expression levels of P-ERK and P-K8 were calculated (FIG. 2B).
In the bar graph analyzed from the image of western blotting, the expression levels of P-ERK and P-K8 were calculated (FIG. 4A).
as §1

[3] = tested on: APRE-19 cells and human-tissue-derived RPE cells; assay: P-K8 immunostaining: reorganization of K8 around the nucleus under paraquat oxidative stress; type: cell-based
Excerpt: The ARPE-19 cells are cell lines that have been genetically engineered for infinite proliferation for experimental use. However, as the human-tissue-derived RPE cells were obtained by culturing RPE tissue isolated from the human eye without any genetic engineering they were used for experiments under conditions similar to those of human RPE.
Thereafter, P-K8 (green fluorescence) of the cells was immunostained (Abcam; ab32579). The nucleus was stained (Invitrogen; T3605) using TOPRO-3 (blue fluorescence) (FIG. 2C).
P-K8 (green fluorescence) of the cells was immunostained (FIG. 4B).
as §1

mouse retinal cells = assay: NaIO3-induced retinal degeneration in mouse, ZO-1 immunohistochemical analysis; type: in vivo; details: 20 mg/kg NaIO3 intravenously, 10 mg/kg PD98059, sacrificed 2 weeks after administration, FIG. 3C
Method: 7- to 9-week-old mouse retinal cells were subjected to immunohistochemical analysis (Abcam; ab59720) for a tight junction marker ZO-1 (green fluorescence). A saline-treated group was a control group with intravenous administration of 0.9% NaCl. A mouse group administered intravenously with 20 mg/kg of NaIO3 was selectively treated with 10 mg/kg of PD98059. Animal groups were sacrificed 2 weeks after intravenous administration. The fluorescence images were obtained through a confocal microscope (FIG. 3C).

[4] = 400 μM paraquat and 20 μM PD98059 for 48 hr, FIG. 3A
[5] = APRE-19 cells, 400 μM paraquat 24 hr, then 20 μM PD98059 24 hr, FIG. 2B
[6] = 400 μM paraquat and 10 μM gefitinib for 48 hr, FIG. 5C

Row | SMILES | epithelial-mesenchymal transition [1, 4] | E-cadherin expression [1, 4] | vimentin filaments [1, 4] | cell motility (ARPE-19 cells) | K8 phosphorylation due to oxidative stress (P-ERK and P-K8 expression levels) [2, 5] | expression of LC3 I/II, the autophagy marker [2, 5] | effect of inhibiting K8 phosphorylation due to oxidative stress (P-K8 expression level) ([2]; APRE-19 cells, 400 μM paraquat 24 hr, then 20 μM PD98059 24 hr, compared to 10 μM SP600125, FIG. 2A) | reorganization of K8 around the nucleus ([3]; APRE-19 and human-tissue-derived RPE cells, 400 μM paraquat and 20 μM PD98059 for 36 hr, FIG. 2C) | degeneration of retinal cells (tight junction marker ZO-1) (mouse retinal cells) | epithelial-mesenchymal transition [1, 6] | E-cadherin expression [1, 6] | vimentin filaments [1, 6] | K8 phosphorylation due to oxidative stress (P-ERK and P-K8 expression levels) [2] | reorganization of K8 around the nucleus ([3]; APRE-19 cells, 400 μM paraquat and 10 μM gefitinib for 36 hr, FIG. 5B)
1 | COc1cccc(-c2cc(=O)c3ccccc3o2)c1N [PD98059] | reduce epithelial-mesenchymal transition | recovered E-cadherin lost | inhibited an increase in vimentin filaments | reduced increased cell motility | inhibited K8 phosphorylation | not involved in the expression of LC3 I/II | superior | inhibited reorganization of K8 around the nucleus | restored the degeneration of retinal cells |  |  |  |  | 
2 | COc1cc2ncnc(Nc3ccc(F)c(Cl)c3)c2cc1OCCCN1CCOCC1 [gefitinib] |  |  |  |  |  |  |  |  |  | reduce epithelial-mesenchymal transition | recovered E-cadherin lost | inhibited the increase in vimentin filaments | inhibited phosphorylation of K8 | inhibited reorganization of K8 around the nucleus
